Laboratory results published in patent publication US7179887B2, “Guinea pig proteinase-activated receptor 4 and its activating peptide” (Ortho-McNeil Pharmaceutical, Inc., priority 2001, dated 2007).
Values belong to the molecule of their own block, whether it stands above or below them. Residues, ends and D or L forms follow the SMILES beside them. No end group written: not given here.

Columns and labels:
[1] = test system: guinea pig gel filtered platelets; conditions: Nishikawa et al. (2000); cited from earlier work
[2] = test system: human gel filtered platelets; conditions: for induction of human platelet aggregation / activation of human PAR-4 (in words): human platelets
Procedure: (§1) Human platelet-rich plasma (PRP) concentrate (Biological Specialties, Inc., Colmar, Pa.) was gel-filtered (Sepharose 2B, Pharmacia, Inc.) in Tyrode's buffer (140 mM NaCl, 2.7 mM KCl, 12 mM NaHCO3, 0.76 mM Na2HPO4, 5.5 mM dextrose, 5.0 mM Hepes, and 2 mg/ml BSA, pH 7.4). Guinea pigs (400–800 g) were anesthetized and blood drawn via an intraarterial catheter. PRP was prepared by centrifugation at 200×g for 10 min. Guinea pig PRP was gel-filtered as above. Gel-filtered platelets were diluted with Tyrode's buffer (143,000 platelets/μl, per well) and 2 mM CaCl2 in a 96-well microtiter plate. Platelet aggregation was initiated by the addition of the guinea pig PAR-4 AP (SFPGQA-NH2, SEQ ID No.:7) peptide. The assay plate was gently mixed constantly. Aggregation was monitored at 0 and 5 min after agonist addition in a microplate reader (Molecular Devices) by optical density at 650 nm (ΔSOFT). Aggregation was calculated as the decrease in optical density between the two measurements. All samples were tested in duplicate wells on the same plate.

[3] = test system: guinea pig gel filtered platelets
Procedure: as §1

[4] = test system: human gel filtered platelets; conditions: background statement; cited from earlier work

Molecule: GYPGKF-NH2 [murine PAR-4 AP]
response of guinea pig platelets to activating peptide (literature) [1]: do not respond

Molecule: GYPGQV-NH2 [human PAR-4 AP]
induction of human platelet aggregation / activation of human PAR-4 (in words) [2]: induced human platelet aggregation

Molecule: SFLLRN-NH2 [human PAR-1 AP]
induction of guinea pig platelet aggregation / response of guinea pig PAR-4 (in words) ([3]; isolated guinea pig platelets): induced guinea pig platelet aggregation | induction of human platelet aggregation / activation of human PAR-4 (in words) [2]: induced human platelet aggregation | aggregation of human platelets by exogenous activating peptide (background) [4]: aggregation of human platelets can be reproduced

EC50 [3]: 174 ± 14.6 µM | EC50 [2]: 140 ± 2.5 µM
Molecule: C[C@H](NC(=O)[C@H](CCC(N)=O)NC(=O)CNC(=O)[C@@H]1CCCN1C(=O)[C@H](Cc1ccccc1)NC(=O)[C@@H](N)CO)C(N)=O [guinea pig PAR-4 AP, SFPGQA-NH2] (H-SFPGQA-NH2; N-terminus assumed)
induction of human platelet aggregation / activation of human PAR-4 (in words) [2]: cross-activates human PAR-4
